The values below come from US6596758B1, “Benzopyrans and benzoxepines, pharmaceutical compositions comprising them and preparation process” (Merck Patent GmbH, priority 1998, dated 2003).

In one data set the test system is db/db mice. Briefly: Antidiabetic and hypolipidaemic activity by the oral route in db/db mice. It counts as in vivo. As to conditions: 100 mg/kg/day per os. On the procedure: The antidiabetic and hypolipidaemic activity of the compounds of formula I [sic] was determined by the oral route in db/db mice.
Two-month-old db/db mice are treated per os for 15 days with the compound of Example 16 (100 mg/kg/day). Each study group comprises seven animals. After treating for three days (D3) and fifteen days (D15), retro-orbital samples are taken after light anaesthesia and fasting for 4 hours.
The following measurements were taken:
quantitative determination of glycaemia (glucose oxidase) at D3 and D15 and of the lipid parameters with regard to the sera at D15 (COBAS): triglycerides, total cholesterol (CHOL), HDL cholesterol (HDL-C) and free fatty acids (FFA) (BioMérieux and Wako Chemicals quantitative determination kit).
The measurements which appear in this table are mean values±standard error.

Data set [1] deals with pGL3 reporter vector devoid of a PPAR response element. Briefly: pGL3 reporter vector devoid of a PPAR response element, CV1 cells. It counts as cell-based, green monkey. The text has this: (§1) Analysis of the activation of PPARα and PPARγ is based on the transfection of a DNA allowing the expression of a reporter gene (the gene of luciferase) under the control of the PPARs, either endogenous in the case of PPARγ of exogenous in the case of PPARα. The reporter plasmid J3TkLuc comprises three copies of the response element for PPARs of the human apo A-II gene (Staels, B et al. (1995), J. Clin. Invest., 95, 705-712) which are cloned upstream of the promoter of the thymidine kinase gene of the herpes simplex virus in the plasmid pGL3. This reporter gene was obtained by subcloning, in the plasmid pGL3, the plasmid J3TkCAT described above (Fajas, L et al. (1997), J. Biol. Chem., 272, 18779-18789). […] These cells were inoculated at the rate of 20,000 cells per well (96-well plates) and transfected with 150 ng of reporter DNA complexed with a mixture of lipids. In the case of the SK-Hep1 cells, an expression vector for PPARα, described by Sher, T. et al. (1993), Biochemistry, 32, 5598-5604, is cotransfected. After 5, hours, the cells are washed twice and incubated for 36 hours in the presence of the test compound in a fresh culture medium comprising 10% foetal calf serum. At the end of incubation, the cells are lysed and the luciferase activity is measured. This activity is expressed relative to the control value. […]

Data set [2] has the same test system. As to the kind of experiment: pGL3 reporter vector devoid of a PPAR response element, SK-Hep1 cells. It counts as cell-based, human.
Source text: as §1

Another data set has as its target T1, PPARα (Homo sapiens, UniProt Q07869).
T1 construct: expressed in transfected cells
T1 sequence (Q07869 1-468): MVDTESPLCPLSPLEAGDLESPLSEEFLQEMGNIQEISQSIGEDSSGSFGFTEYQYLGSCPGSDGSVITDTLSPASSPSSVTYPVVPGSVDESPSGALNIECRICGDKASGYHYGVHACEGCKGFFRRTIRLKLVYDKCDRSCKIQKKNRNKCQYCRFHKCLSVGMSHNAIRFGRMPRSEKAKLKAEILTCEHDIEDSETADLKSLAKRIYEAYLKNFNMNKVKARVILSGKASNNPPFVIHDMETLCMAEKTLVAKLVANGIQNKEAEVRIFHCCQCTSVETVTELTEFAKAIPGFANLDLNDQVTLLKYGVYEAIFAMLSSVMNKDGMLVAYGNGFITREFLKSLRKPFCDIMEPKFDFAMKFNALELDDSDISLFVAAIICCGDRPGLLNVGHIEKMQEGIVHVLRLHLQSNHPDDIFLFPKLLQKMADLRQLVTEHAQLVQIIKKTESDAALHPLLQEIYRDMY
Briefly: PPARα activation, luciferase reporter (J3TkLuc) in SK-Hep1 cells cotransfected with PPARα expression vector. Format: cell-based. As to conditions: 36 hours incubation, relative to the control value.
Source text: (§2) The hypolipidaemic and hypoglycaemic effect of the compounds of the invention results from their ability to activate the PPARα and PPARγ isoforms.
as §1, with “After 5, hours, the cells are washed twice and incubated for 36 hours in the presence of the test compound in a fresh culture medium comprising 10% foetal calf serum.” left out, “measured.” for “measured. This activity is expressed relative to the control value.”
A general note: In a reporter assay the amount or activity of a reporter protein is the signal.

The test system of another data set is PPARγ. As to the kind of experiment: PPARγ activation, luciferase reporter (J3TkLuc) in CV1 cells. Conditions: 36 hours incubation, relative to the control value. It counts as cell-based, green monkey.
Source text: as §2
as §1, with “After 5, hours, the cells are washed twice and incubated for 36 hours in the presence of the test compound in a fresh culture medium comprising 10% foetal calf serum.” left out, “measured.” for “measured. This activity is expressed relative to the control value.”

The mark [3] stands for this setting: day 15, serum, mean ± standard error.

`CCCCCCCCCNC1Oc2ccccc2C=C1/C=C/C(C)=C/C(=O)O` (stereo not drawn): the melting point – broadly, the temperature, or range, at which the solid turns liquid – fell in the range of 104 to 106 °C.
As for `CCOC(=O)/C=C(C)/C=C/C1=Cc2ccccc2OC1` [Example 3a], the melting point was 110 to 112 °C.
As to `CC(/C=C/C1=Cc2ccccc2OC1)=C\C(=O)O` [Example 3b], the melting point is 226 to 228 °C.
On the same count and under the same terms, with `CC(/C=C/C1=Cc2ccccc2OC1(C)C)=C\C(=O)O` [Example 4b] the figure was 164 to 166 °C; with `CC(=C/C(=O)O)/C=C/C1=Cc2ccccc2OC1(C)C` [Example 5b], 176 °C.
Regarding `CC(/C=C/C1=C(c2ccccc2)c2ccccc2OC1)=C\C(=O)O` [Example 7b], the melting point lay within 258 to 260 °C.
The same measure, in the same setting: with `CC1=C(/C=C/C(C)=C/C(=O)O)COc2ccccc21` [Example 11b] the figure was 216 to 218 °C.
With `CC(=C/C(=O)O)/C=C/C1=Cc2ccccc2OC1` [Example 12b], the melting point lay within 224 to 226 °C.
`CC(/C=C/C1=Cc2ccccc2OC1c1ccccc1)=C\C(=O)O` (stereo not drawn) [Example 14b] displayed a melting point of 200 to 202 °C.
`COc1ccc2c(c1)C(/C=C/C(C)=C/C(=O)O)=CC(C)(C)CO2` [Example 16b, (2E, 4E)-5-(3,3-Dimethyl-7-methoxy-2,3-dihydrobenzoxepin-5-yl)-3-methylpenta-2,4-dienoic acid]: in the data set with db/db mice (day 3), the “Glycaemia D3, % variation with respect to the control” value is listed as −28%. For the same molecule, the “Glycaemia D3” value with db/db mice (day 3, fasting 4 hours, mean ± standard error) was found to be 15.4 ± 3.8 mM. Besides, the “Glycaemia D15, % variation with respect to the control” value with db/db mice (day 15) is listed as −40%. Besides, in the data set on db/db mice (day 15, fasting 4 hours, mean ± standard error), the “Glycaemia D15” value came to 16.7 ± 4.4 mM. For the same molecule, in the data set with db/db mice (day 15, serum), the “CHOL D15, % variation with respect to the control” value is “+19%”; the “FFA, % variation with respect to the control” value is on record as −20%; the “HDL-C D15, % variation with respect to the control” value is on record as “+18%”; the “Triglycerides D15, % variation with respect to the control” value is reported as −68%. For the same molecule, in the data set on db/db mice (setting [3]), the “CHOL D15 (total cholesterol)” value came to 4.44 ± 0.39 mM, the “FFA (free fatty acids)” value is recorded as 0.82 ± 0.23 (ns) mM, the “HDL-C D15 (HDL cholesterol)” value was found to be 3.50 ± 0.37 mM and the “Triglycerides D15” value worked out at 0.69 ± 0.09 mM. The “luciferase activity with pGL3 reporter vector devoid of a PPAR response element” value in data set [1] is “inactive”. Also, the “luciferase activity with pGL3 reporter vector devoid of a PPAR response element” value in data set [2] was “inactive”. Moreover, at PPARα, the “increase of the luciferase signal” value was 250%. The “increase of the luciferase signal” value in the data set with PPARγ stood at 300%.
In turn, `COc1ccc2c(c1)C(/C=C/C(C)=C/C(=O)O)=CC1(CCCCC1)CO2` [Example 34B, (2E, 4E)-5-(Spiro[(7-methoxy-2,3-dihydrobenzo[b]-oxepine)-3,1′-cyclohexane]-5-yl)-3-methyl-penta-2,4-dienoic acid] yielded a melting point of 173 to 174 °C.
On the same count and under the same terms, next, `CC(/C=C/C1=CC(C)(C)COc2cc(C)c(C)cc21)=C\C(=O)O` [Example 37B, 3-Methyl-5-(3,3,7,8-tetramethyl-2,3-dihydrobenzo[b]-oxepin-5-yl)penta-2,4-dienoic acid]: 171 to 173 °C; `CCOC(=O)/C=C(C)/C=C/C1=CC(C)(C)COc2cc(-c3ccc(F)cc3)ccc21` [Example 38A, (2E, 4E)-5-[8-(4-Fluorophenyl)-3,3-dimethyl-2,3-dihydrobenzo[b]-oxepin-5-yl]-3-methylpenta-2,4-dienoic acid ethyl ester]: 113 to 115 °C.
On the same count and under the same terms, next, `CC(/C=C/C1=CC(C)(C)COc2cc(-c3ccc(F)cc3)ccc21)=C\C(=O)O` [Example 38B, (2E, 4E)-5-[8-(4-Fluorophenyl)-3,3-dimethyl-2,3-dihydrobenzo[b]-oxepin-5-yl]-3-methylpenta-2,4-dienoic acid]: 207 to 209 °C.
On the same count and under the same terms, next, `COc1ccc2c(c1)OCC(C)(C)C=C2/C=C/C(C)=C/C(=O)O` [Example 39B, (2E, 4E)-5-(8-Methoxy-3,3-dimethyl-2,3-dihydrobenzo[b]-oxepin-5-yl)-3-methylpenta-2,4-dienoic acid]: 178 to 180 °C; `CC(/C=C/C1=CC(C)(C)COc2ccc(C(C)C)cc21)=C\C(=O)O` [Example 40B, (2E, 4E)-5-(7-Isopropyl-3,3-dimethyl-2,3-dihydrobenzo[b]-oxepin-5-yl)-3-methylpenta-2,4-dienoic acid]: 145 °C; `CCCCCC1C=C(/C=C/C(C)=C/C(=O)O)c2cc(OC)ccc2OC1` (stereo not drawn) [Example 41, (2E, 4E)-5-(7-Methoxy-3-pentyl-2,3-dihydrobenzo[b]-oxepin-5-yl)-3-methylpenta-2,4-dienoic acid]: 154 to 156 °C.
Consider `CCC(/C=C/C1=CC(C)(C)COc2ccc(OC)cc21)=C\C(=O)O` [Example 43B, (2E, 4E)-3-Ethyl-5-(7-methoxy-3,3-dimethyl-2,3-dihydrobenzo[b]-oxepin-5-yl)penta-2,4-dienoic acid], for which the melting point was in the range of 166 to 168 °C.
As to `CC(/C=C/C1=CC(C)(C)COc2ccc(O)cc21)=C\C(=O)O` [Example 44B], the melting point turned out to be 206 °C.
For the molecule `CC(/C=C/C1=CC(C)(C)COc2ccc(-c3ccc(C(F)(F)F)cc3)cc21)=C\C(=O)O` [Example 45B, (2E, 4E)-5-[3,3-Dimethyl-7-(4-(trifluoromethyl)phenyl)-2,3-dihydrobenzo[b]-oxepin-5-yl]-3-methylpenta-2,4-dienoic acid], the melting point lay within 194 to 196 °C.
Consider `COc1cccc2c1C(/C=C/C(C)=C/C(=O)O)=CC(C)(C)O2` [Example 46B, (2E, 4E)-5-(5-Methoxy-2,2-dimethyl-2H-chromen-4-yl)-3-methylpenta-2,4-dienoic acid], for which the melting point was 160 to 162 °C.
Still for that read-out and setting: next, `COc1ccc2c(c1)C(/C=C/C(C)=C/C(=O)O)=CC(C)(C)CS2` [Example 47B, (2E, 4E)-5-(7-Methoxy-3,3-dimethyl-2,3-dihydrobenzo[b]-thiepin-5-yl)-3-methylpenta-2,4-dienoic acid]: 159 to 161 °C.
Same read-out and setting: next, `COc1ccc2c(c1)OC(C)(C)C=C2/C=C/C(C)=C/C(=O)O` [Example 48B, (2E, 4E)-5-(7-Methoxy-2,2-dimethyl-2H-chromen-4-yl)-3-methylpenta-2,4-dienoic acid]: 162 to 163 °C; `CCCC(/C=C/C1=CC(C)(C)COc2ccc(OC)cc21)=C\C(=O)O` [Example 49B, (2E, 4E)-5-(7-Methoxy-3,3-dimethyl-2,3-dihydrobenzo[b]-oxepin-5-yl)-3-propylpenta-2,4-dienoic acid]: 174 to 176 °C; `CC(/C=C/C1=CC(C)(C)COc2ccc(C3CCCCC3)cc21)=C\C(=O)O` [Example 50B, (2E, 4E)-5-(7-Cyclohexyl-3,3-dimethyl-2,3-dihydrobenzo[b]-oxepin-5-yl)-3-methylpenta-2,4-dienoic acid]: 195 to 196 °C.
On the same count and under the same terms, with `CCCCCC(/C=C/C1=CC(C)(C)COc2ccc(OC)cc21)=C\C(=O)O` [Example 52B, (2E, 4E)-5-(7-Methoxy-3,3-dimethyl-2,3-dihydrobenzo[b]-oxepin-5-yl)-3-pentylpenta-2,4-dienoic acid] the figure was 147 to 149 °C; with `COc1ccc2c(c1)C(/C=C/C(C)=C/C(=O)O)=C(C)C(C)(C)CO2` [Example 54B, (2E, 4E)-5-(7-Methoxy-3,3,4-trimethyl-2,3-dihydrobenzo[b]-oxepin-5-yl)-3-methylpenta-2,4-dienoic acid], 129 to 130 °C.
